From patent US20090042917A1, “Aminopyrimidine Derivative and Plant Disease Control Agent for Agricultural or Horticultural Use” (KUMIAI CHEMICAL INDUSTRY CO., LTD., priority 2006, published 2009)

Tests used:
Type in all cases: in vivo
Septoria nodorum = test: Test on protective effect against Septoria nodorum (wheat); details: 500 ppm active ingredient sprayed on wheat (Norin No. 61) at two-leaf stage before inoculation; 9 days after
Procedure: 10 wheat seeds (variety: Norin No. 61) were sown in each plastic cup having a diameter of 5.5 cm and allowed to grow for 9 days in a greenhouse. […] After air drying, the plants were inoculated by spraying with a pycnidiospore suspension of Septoria nodorum. The inoculated plants were immediately put in a moist chamber at 25° C. (relative humidity of 100%) for 48 hours. Thereafter, the plants were transferred to a greenhouse. 9 days after, disease development indexes of first leaves for total pots were examined according to the standard in Test Example 3, a disease severity was determined using the expression in Test Example 3 and a control level (%) was calculated using the expression in Test Example 3.

[1] = test system: Pseudoperonospora cubensis; test: Test on protective effect against Pseudoperonospora cubensis (cucumber seedlings); details: 500 ppm active ingredient sprayed on cucumber (Sagami-Hanziro) seedlings before inoculation; 6 days after
Procedure: 4 cucumber seeds (variety: Sagami-Hanziro) were sown in each plastic cup having a diameter of 5.5 cm and allowed to grow for 7 days in a greenhouse. […] After air drying, the plants were inoculated by spraying with a conidia suspension of Pseudoperonospora cubensis. The inoculated plants were immediately put in a moist chamber at 20° C. (relative humidity of 100%) for 24 hours. Thereafter, the plants were transferred to a greenhouse. 6 days after, disease development indexes of cotyledons for total pots were examined according to the standard described below, a disease severity was determined using an expression shown below and a control level (%) was calculated using another expression shown below. The standard for disease development index is as follows: [table] Hereinbelow, an expression to calculate a disease severity (%) is shown. [formula] Hereinbelow, an expression to calculate a control level (%) is shown. [formula]

Pyricularia oryzae = test: whole plant or invertebrate; details: 500 ppm active ingredient sprayed on rice (Aichi Asahi) at four-leaf stage before inoculation; lesions counted 5 days after inoculation
Botrytis cinerea = test: Test on protective effect against Botrytis cinerea (cucumber seedlings); details: 500 ppm active ingredient sprayed on cucumber (Sagami-Hanziro) seedlings before inoculation; 2 days after
Procedure: 4 cucumber seeds (variety: Sagami-Hanziro) were sown in each plastic cup having a diameter of 5.5 cm and allowed to grow for 7 days in a greenhouse. […] After air drying, a sterilized paper disc was immersed in a conidia suspension of Botrytis cinerea and laid on an upper side of a cucumber cotyledon for innoculation and thereafter cared in a moist chamber at 20° C.

Rhizoctonia solani = test: Test on protective effect against Rhizoctonia solani (rice pot test); details: 500 ppm active ingredient sprayed on rice (Kinmaze) at 2.5 to 3-leaf stage before inoculation; 5 days after inoculation
Procedure: 15 rice seeds (variety: Kinmaze) were sown in each clay pot having a diameter of 7.5 cm and allowed to grow for 3 weeks in a greenhouse. […] After air drying, the plants were inoculated by uniformly covering the surface of the soil with Rhizoctonia solani cultured in a rice-husk bran medium and incubated in a moist chamber at 30° C. […] The standard for disease development index is as follows: [table] Hereinbelow, an expression to calculate a control level (%) is shown. [formula]

Measured: control level

Clc1nc(-n2cccn2)nc(N2CCCC2)c1Cc1ccccc1 [Comparative Compound 1, reference compound]
did not exhibit a control effect: all assays above
